Converted amounts (≈) assume the structure as drawn. The source made the active and inactive calls. The rule behind the calls is not given here.
Legend:
[1] = Cytotoxicity against human U937 cells assessed as cell viability after 48 hrs by WST-1 assay; type: cell-based; details: U-937, 48 h
[2] = target: T1, Polyunsaturated fatty acid 5-lipoxygenase (Homo sapiens, UniProt P09917); experiment: Inhibition of 5-LO in human PMNL using arachidonic acid as substrate assessed as product formation incubated for 15 mins prior to substrate addition measured after 10 mins by HPLC analysis
T1 sequence (P09917 whole entry): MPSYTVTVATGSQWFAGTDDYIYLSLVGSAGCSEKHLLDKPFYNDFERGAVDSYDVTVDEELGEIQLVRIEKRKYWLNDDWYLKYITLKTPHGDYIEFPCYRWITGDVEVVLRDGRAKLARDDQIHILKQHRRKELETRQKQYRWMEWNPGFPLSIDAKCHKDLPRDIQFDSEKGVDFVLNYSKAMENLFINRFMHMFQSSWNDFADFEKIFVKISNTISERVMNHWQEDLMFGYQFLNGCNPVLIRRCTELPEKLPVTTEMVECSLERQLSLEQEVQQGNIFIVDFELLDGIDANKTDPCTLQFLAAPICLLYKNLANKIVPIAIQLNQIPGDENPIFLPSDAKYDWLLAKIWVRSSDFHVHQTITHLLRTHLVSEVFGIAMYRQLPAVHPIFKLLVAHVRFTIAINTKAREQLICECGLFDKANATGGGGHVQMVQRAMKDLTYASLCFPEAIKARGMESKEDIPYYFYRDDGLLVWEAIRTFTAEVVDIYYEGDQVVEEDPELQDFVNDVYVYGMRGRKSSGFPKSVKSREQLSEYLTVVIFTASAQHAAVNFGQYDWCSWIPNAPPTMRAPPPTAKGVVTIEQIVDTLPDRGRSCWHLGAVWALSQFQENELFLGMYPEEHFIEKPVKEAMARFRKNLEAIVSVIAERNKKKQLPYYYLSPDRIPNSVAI

[3] = target: T2, Polyunsaturated fatty acid lipoxygenase ALOX12 (Homo sapiens, UniProt P18054); experiment: Inhibition of 12-LO (unknown origin)
T2 sequence (P18054 whole entry): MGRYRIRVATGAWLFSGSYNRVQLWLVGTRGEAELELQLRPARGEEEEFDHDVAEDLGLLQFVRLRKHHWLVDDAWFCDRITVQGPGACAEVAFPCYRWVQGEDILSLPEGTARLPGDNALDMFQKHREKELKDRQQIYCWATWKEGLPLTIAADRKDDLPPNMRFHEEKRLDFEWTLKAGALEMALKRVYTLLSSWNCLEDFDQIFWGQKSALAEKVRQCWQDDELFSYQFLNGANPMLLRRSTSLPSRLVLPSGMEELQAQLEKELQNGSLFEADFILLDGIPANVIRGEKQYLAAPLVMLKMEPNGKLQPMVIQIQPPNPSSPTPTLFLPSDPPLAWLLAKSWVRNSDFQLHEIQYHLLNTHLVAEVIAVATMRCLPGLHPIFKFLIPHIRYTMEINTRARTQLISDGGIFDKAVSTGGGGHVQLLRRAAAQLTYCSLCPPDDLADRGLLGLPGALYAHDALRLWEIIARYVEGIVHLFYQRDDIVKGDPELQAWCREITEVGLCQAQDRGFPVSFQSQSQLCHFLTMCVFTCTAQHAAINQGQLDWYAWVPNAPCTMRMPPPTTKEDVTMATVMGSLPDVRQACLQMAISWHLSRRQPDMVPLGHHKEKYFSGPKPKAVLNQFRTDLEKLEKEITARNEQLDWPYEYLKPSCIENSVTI

[4] = Solubility of the compound in PBS at pH 7.4 at RT; type: physicochemical
[5] = target: T3, Polyunsaturated fatty acid lipoxygenase ALOX15 (Homo sapiens, UniProt P16050); experiment: Inhibition of 15-LO1 (unknown origin)
T3 sequence (P16050 whole entry): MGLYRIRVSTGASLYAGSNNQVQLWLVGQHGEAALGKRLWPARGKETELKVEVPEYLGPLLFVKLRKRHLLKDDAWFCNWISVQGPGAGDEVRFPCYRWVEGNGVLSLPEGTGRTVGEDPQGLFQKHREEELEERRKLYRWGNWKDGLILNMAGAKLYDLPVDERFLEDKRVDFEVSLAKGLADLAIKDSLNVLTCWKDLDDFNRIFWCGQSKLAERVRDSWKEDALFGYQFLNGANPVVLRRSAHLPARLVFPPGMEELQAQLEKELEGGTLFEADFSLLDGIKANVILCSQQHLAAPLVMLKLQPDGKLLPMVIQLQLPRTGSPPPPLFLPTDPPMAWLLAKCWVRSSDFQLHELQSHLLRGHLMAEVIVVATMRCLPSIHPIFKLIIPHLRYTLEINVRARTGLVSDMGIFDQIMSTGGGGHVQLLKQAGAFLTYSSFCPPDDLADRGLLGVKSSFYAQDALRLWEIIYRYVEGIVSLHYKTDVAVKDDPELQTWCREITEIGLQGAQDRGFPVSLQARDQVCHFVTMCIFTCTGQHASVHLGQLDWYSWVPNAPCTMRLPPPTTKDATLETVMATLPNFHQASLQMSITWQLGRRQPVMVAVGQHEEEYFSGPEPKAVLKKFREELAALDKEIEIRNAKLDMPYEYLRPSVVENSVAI

[6] = target: T1, Polyunsaturated fatty acid 5-lipoxygenase; experiment: Inhibition of 5-LO in human PMNL S100 extract using arachidonic acid as substrate incubated for 15 mins prior to substrate addition measured after 10 mins by HPLC analysis
[7] = target: T4, Polyunsaturated fatty acid 5-lipoxygenase (Homo sapiens) (UniProt P09917); experiment: Inhibition of 5-LO in human PMNL using arachidonic acid as substrate assessed as product formation at 1 to 10 uM incubated for 15 mins prior to substrate addition measured after 10 mins by HPLC analysis in presence of 10% fetal calf serum
T4 sequence (whole entry): T1 sequence (P09917 whole entry)

[8] = Solubility of the compound in DMSO at RT; type: physicochemical
[9] = Cytotoxicity against human U937 cells at 30 uM after 48 hrs by LDH assay; type: cell-based; details: u-937, 48 h

IC50 [2]: 140 nM
IC50 [3]: > 10000 nM
solubility [4]: 0.08 mM (≈ 0.0265 mg/mL)
IC50 [5]: > 10000 nM
IC50 [6]: 30 nM
inhibition [7]: inactive
solubility [8]: 100 mM (≈ 33.2 mg/mL)
Compound: COc1ccc(Cc2sc(-c3ccc(Cl)cc3)nc2O)cc1
IC50 [1]: > 30000 nM
Activity [9]: 4.09%
